# Literature values in patent US20080021016A1, “Combined Pharmaceutical Composition for the Inhibition of the Decline of Cognitive Functions” (priority 2004, published 2008).
# Tests used:
# central 5-HT2A receptors = central 5-HT2A receptors (Homo sapiens, UniProt P28223)
# [1] = single oral dose of 3 mg/kg sc.
# [2] = 10 and 30 mg/kg after oral treatment
# [3] = single 0.7 mg/kg oral treatment
# [4] = 1 and 10 mg/kg after oral administration
# central 5-HT2C receptors = target: T1, central 5-HT2C receptors (Homo sapiens, UniProt P28335)
# T1 sequence (P28335 33-458): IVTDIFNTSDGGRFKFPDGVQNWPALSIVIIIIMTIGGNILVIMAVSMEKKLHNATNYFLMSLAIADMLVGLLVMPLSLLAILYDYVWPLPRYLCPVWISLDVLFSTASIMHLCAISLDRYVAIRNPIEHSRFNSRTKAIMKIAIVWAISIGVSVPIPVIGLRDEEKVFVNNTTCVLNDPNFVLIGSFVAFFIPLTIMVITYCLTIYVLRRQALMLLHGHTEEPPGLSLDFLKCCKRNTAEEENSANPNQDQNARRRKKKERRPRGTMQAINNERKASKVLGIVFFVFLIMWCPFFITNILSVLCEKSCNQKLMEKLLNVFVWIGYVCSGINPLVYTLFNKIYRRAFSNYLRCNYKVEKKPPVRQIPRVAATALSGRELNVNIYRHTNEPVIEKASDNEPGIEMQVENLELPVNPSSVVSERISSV
# central 5-HT2A receptors, sequence (P28223 whole entry): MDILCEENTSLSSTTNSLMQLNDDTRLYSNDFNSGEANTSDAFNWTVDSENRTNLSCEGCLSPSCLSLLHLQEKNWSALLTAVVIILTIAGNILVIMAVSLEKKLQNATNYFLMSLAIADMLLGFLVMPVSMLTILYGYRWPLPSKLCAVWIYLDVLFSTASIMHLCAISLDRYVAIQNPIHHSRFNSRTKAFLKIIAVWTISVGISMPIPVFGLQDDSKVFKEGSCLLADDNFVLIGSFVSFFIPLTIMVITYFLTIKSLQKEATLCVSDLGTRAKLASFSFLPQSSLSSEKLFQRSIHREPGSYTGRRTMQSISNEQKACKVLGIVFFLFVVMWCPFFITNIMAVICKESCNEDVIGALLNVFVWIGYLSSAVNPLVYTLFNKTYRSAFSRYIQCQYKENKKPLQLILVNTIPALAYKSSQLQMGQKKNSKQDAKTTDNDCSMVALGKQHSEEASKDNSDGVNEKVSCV
substance,measurement,setting,value
"(1R,2S,4R)-(-)-2-[N,N-(dimethylaminoethoxy)]-2-phenyl-1,7,7-trimethylbicyclo[2.2.1]heptane [deramciclane]",binding to central 5-HT2A receptors,central 5-HT2A receptors,significantly bound
same,activity in the light-dark model,[1],active
same,activity in the marble burying model,[2],active
same,time spent with social interactions,[3],increased the time spent with social interactions
same,activity in the Vogel punished drinking test,[4],active
same,binding to central 5-HT2C receptors,central 5-HT2C receptors,significantly bound
